Reference: ChEMBL document CHEMBL4229330, “Synthesis and evaluation of C2 functionalized analogs of the α-tubulin-binding natural product pironetin” (Bioorg Med Chem Lett, 2018)

Key:
Format in all cases: cell-based
A2780 [1] = experiment: Binding affinity to alpha tubulin in human A2780 cells assessed as disruption of tubulin polymerization by measuring reduction in cell proliferation after 48 hrs by CellTiter non-radioactive assay
A2780 [2] = experiment: Binding affinity to alpha tubulin in human A2780 cells assessed as disruption of tubulin polymerization by measuring cell proliferation at higher concentration after 48 hrs by CellTiter non-radioactive assay relative to control
Homo sapiens = species on record: Homo sapiens; experiment: Binding affinity to alpha tubulin in human OVCAR5 cells assessed as disruption of tubulin polymerization by measuring reduction in cell proliferation after 48 hrs by CellTiter non-radioactive assay

SMILES | GI50 (A2780 [1]) [µM] | Activity (A2780 [2]) [%] | GI50 (Homo sapiens) [nM]
C/C=C/C[C@H](C)[C@@H](OC)[C@@H](C)[C@H](O)C[C@H]1OC(=O)C(Cl)=C[C@H]1CC | 4.48 | 10 to 20 | 1080
C/C=C/C[C@H](C)[C@@H](OC)[C@@H](C)[C@H](O)C[C@H]1OC(=O)C=C[C@H]1CC | 0.0243 | 10 to 20 | 14.4
CC(=O)O[C@H]1C(=O)[C@@]2(C)[C@H]([C@H](OC(=O)c3ccccc3)[C@]3(O)C[C@H](OC(=O)[C@H](O)[C@@H](NC(=O)c4ccccc4)c4ccccc4)C(C)=C1C3(C)C)[C@]1(OC(C)=O)CO[C@@H]1C[C@@H]2O | 0.00753 | 10 to 20 | 21

More lines, main results first:

GI50 (A2780 [1]) [µM] | SMILES | Activity (A2780 [2]) [%] | GI50 (Homo sapiens) [nM]
> 50 | C/C=C/C[C@H](C)[C@@H](OC)[C@@H](C)[C@H](O)C[C@H]1OC(=O)C(c2ccccc2)=C[C@H]1CC | 10 to 20 | > 50000
0.901 | C/C=C/C[C@H](C)[C@@H](OC)[C@@H](C)[C@H](O)C[C@H]1OC(=O)C(Br)=C[C@H]1CC | < 10 | 44.9 to 26200
10.2 | C/C=C/C[C@H](C)[C@@H](OC)[C@@H](C)[C@H](O)C[C@H]1OC(=O)C(C)=C[C@H]1CC | 10 to 20 | 3360
5.11 | C/C=C/C[C@H](C)[C@@H](OC)[C@@H](C)[C@H](O)C[C@H]1OC(=O)C(F)=C[C@H]1CC | 10 to 20 | 3240
